Results from patent US20230265116A1, “DEGRADATION OF (EGFR) BY CONJUGATION OF EGFR INHIBITORS WITH E3 LIGASE LIGAND AND METHODS OF USE” (BEIGENE, LTD., priority 2020, published 2023).
Like-named read-outs stand apart in the source and are kept apart here.

Tests used:
[1] = biological target: T1, EGFR L858R/T790M/C797S (BaF3-LTC cells) (Homo sapiens, UniProt P00533, C797S/L858R/T790M); test: EGFR degradation HTRF assay, BaF3-LTC cells; type: cell-based
T1 construct: expressed in transfected cells; host or cells: BaF3
Method in brief: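 Cells treated 16 h at 37 °C, 5% CO2 in medium with 0.2% DMSO; top final concentration 10 uM, 5-fold dilution, 8 doses. Lysates read by HTRF (665/620 nm); degradation % versus DMSO high control, DC50 from four-parameter fit, Dmax as maximal degradation.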

[2] = tested on: EGFR Del19/T790M/C797S (H1975-clone #28); test: EGFR degradation HTRF assay, H1975-clone #28 DTC cells; type: cell-based
Method in brief: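 The test uses H1975 clonal lines carrying lentiviral mutant EGFR with endogenous copies removed, treated 16h at 37° C., 5% CO2. EGFR left in the lysate is quantified by HTRF, and DC50 is derived from an 8-dose curve starting at 10 uM final.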

[3] = BaF3-LTC cells; EGFR degradation, IC50 (DC50) from curve fit; read-out: DC50(nM) BaF3-LTC
[4] = BaF3-LTC cells; maximum percentage of inhibition (degradation); read-out: Dmax (%) BaF3-LTC
[5] = H1975 # 28 DTC cells; EGFR degradation, IC50 (DC50) from curve fit; read-out: DC50(nM) H1975 # 28 DTC
[6] = H1975 # 28 DTC cells; maximum percentage of inhibition (degradation)

T1 sequence (P00533 25-1210 T790M/C797S/L858R): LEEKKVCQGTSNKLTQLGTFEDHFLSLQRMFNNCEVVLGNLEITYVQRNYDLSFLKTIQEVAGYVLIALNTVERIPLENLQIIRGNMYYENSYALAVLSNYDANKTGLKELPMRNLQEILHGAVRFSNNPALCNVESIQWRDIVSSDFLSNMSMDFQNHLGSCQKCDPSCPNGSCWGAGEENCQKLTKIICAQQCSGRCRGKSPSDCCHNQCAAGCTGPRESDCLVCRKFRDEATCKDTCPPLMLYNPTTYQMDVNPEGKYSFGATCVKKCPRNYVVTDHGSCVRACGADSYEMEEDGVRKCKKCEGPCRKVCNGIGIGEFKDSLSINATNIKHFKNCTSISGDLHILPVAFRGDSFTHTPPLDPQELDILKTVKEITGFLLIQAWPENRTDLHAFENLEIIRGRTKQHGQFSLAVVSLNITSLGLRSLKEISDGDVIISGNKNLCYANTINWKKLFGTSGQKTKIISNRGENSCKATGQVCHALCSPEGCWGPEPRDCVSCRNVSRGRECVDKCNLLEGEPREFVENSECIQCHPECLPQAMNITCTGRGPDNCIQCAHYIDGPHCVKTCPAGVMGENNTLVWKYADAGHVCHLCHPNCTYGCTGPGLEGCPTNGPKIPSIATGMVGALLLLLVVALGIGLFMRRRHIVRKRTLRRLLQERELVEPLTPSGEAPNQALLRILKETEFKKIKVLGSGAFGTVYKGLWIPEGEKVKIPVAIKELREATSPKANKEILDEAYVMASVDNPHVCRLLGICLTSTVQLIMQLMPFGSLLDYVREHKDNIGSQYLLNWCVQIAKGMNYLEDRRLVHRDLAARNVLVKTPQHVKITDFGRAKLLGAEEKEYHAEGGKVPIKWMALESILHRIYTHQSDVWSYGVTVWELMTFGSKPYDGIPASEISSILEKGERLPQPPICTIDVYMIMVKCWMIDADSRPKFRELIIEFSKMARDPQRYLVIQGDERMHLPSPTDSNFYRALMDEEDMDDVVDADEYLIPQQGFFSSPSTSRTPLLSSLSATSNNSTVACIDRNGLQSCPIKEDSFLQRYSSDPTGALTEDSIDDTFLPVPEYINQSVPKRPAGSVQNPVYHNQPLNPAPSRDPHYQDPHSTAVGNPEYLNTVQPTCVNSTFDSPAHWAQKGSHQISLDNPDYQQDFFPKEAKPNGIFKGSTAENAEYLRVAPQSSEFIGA

Compound | DC50 [1, 3] [nM] | Dmax [1, 4] [%] | DC50 [2, 5] [nM] | Dmax (%) H1975 # 28 DTC [2, 6] [%] | DC50 ([1]; read-out: DC50(nM) BaF3-LTC; BaF3-LTC cells; EGFR degradation, IC50 (DC50) from curve fit) [nM] | Dmax ([1]; read-out: Dmax (%) BaF3-LTC, BaF3-LTC cells; maximum percentage of inhibition (degradation)) [%] | DC50 ([2]; read-out: DC50(nM) H1975 # 28 DTC; H1975 # 28 DTC cells; EGFR degradation, IC50 (DC50) from curve fit) [nM]
CCc1ccc2c(P(C)(C)=O)c(Nc3nc(Nc4cc(CC)c(N5CCC(N6CCN(C(=O)C78CCC(Nc9cc(F)c([C@H]%10CCC(=O)NC%10=O)c(F)c9)(CC7)C8)CC6)CC5)cc4OC)ncc3Br)ccc2n1 [Example 663, (R)-3-(4-((4-(4-(1-(4-((5-bromo-4-((5-(dimethylphosphoryl)-2-ethylquinolin-6-yl)amino)pyrimidin-2-yl)amino)-2-ethyl-5-methoxyphenyl)piperidin-4-yl)piperazine-1-carbonyl)bicyclo[2.2.1]heptan-1-yl)amino)-2,6-difluorophenyl)piperidine-2,6-dione] | 3.98 | 95.8 | 1.81 | 74.11 | – | – | –
CCc1ccc2c(P(C)(C)=O)c(Nc3nc(Nc4cc(CC)c(N5CCC(N6CCN(C(=O)CN7CCN(c8cc(F)c([C@H]9CCC(=O)NC9=O)c(F)c8)CC7)CC6)CC5)cc4OC)ncc3Br)ccc2n1 [Example 665, (R)-3-(4-(4-(2-(4-(1-(4-((5-bromo-4-((5-(dimethylphosphoryl)-2-ethylquinolin-6-yl)amino)pyrimidin-2-yl)amino)-2-ethyl-5-methoxyphenyl)piperidin-4-yl)piperazin-1-yl)-2-oxoethyl)piperazin-1-yl)-2,6-difluorophenyl)piperidine-2,6-dione] | 1.49 | 97.9 | 0.543 | 85.47 | – | – | –
CCc1cc(Nc2ncc(Br)c(Nc3ccc4nc(C)sc4c3P(C)(C)=O)n2)c(OC)cc1N1CCC(N2CCN(CCc3cc(F)c(C4CCC(=O)NC4=O)c(F)c3)CC2)CC1 (stereo not shown) [Example 666, 3-(4-(2-(4-(1-(4-((5-bromo-4-((7-(dimethylphosphoryl)-2-methylbenzo[d]thiazol-6-yl)amino)pyrimidin-2-yl)amino)-2-ethyl-5-methoxyphenyl)piperidin-4-yl)piperazin-1-yl)ethyl)-2,6-difluorophenyl)piperidine-2,6-dione] | 11.1 | 93.2 | 2.4 | 86.11 | – | – | –
COc1cc(N2CCC3(CCN(C(=O)[C@@H]4CCN(c5cc(F)c([C@H]6CCC(=O)NC6=O)c(F)c5)C4)CC3)CC2)c(C)cc1Nc1ncc(Br)c(Nc2ccc3nccnc3c2P(C)(C)=O)n1 [Example 667, (R)-3-(4-((R)-3-(9-(4-((5-bromo-4-((5-(dimethylphosphoryl)quinoxalin-6-yl)amino)pyrimidin-2-yl)amino)-5-methoxy-2-methylphenyl)-3,9-diazaspiro[5.5]undecane-3-carbonyl)pyrrolidin-1-yl)-2,6-difluorophenyl)piperidine-2,6-dione] | 13.3 | 84 | 3.69 | 77.43 | – | – | –
CCc1cc(Nc2ncc(Br)c(Nc3ccc4ncncc4c3P(C)(C)=O)n2)c(OC)cc1N1CCC(N2CCN(C(=O)[C@@H]3CCN(c4cc(F)c([C@H]5CCC(=O)NC5=O)c(F)c4)C3)CC2)CC1 [Example 668, (R)-3-(4-((R)-3-(4-(1-(4-((5-bromo-4-((5-(dimethylphosphoryl)quinazolin-6-yl)amino)pyrimidin-2-yl)amino)-2-ethyl-5-methoxyphenyl)piperidin-4-yl)piperazine-1-carbonyl)pyrrolidin-1-yl)-2,6-difluorophenyl)piperidine-2,6-dione] | 2.32 | 91.5 | 0.579 | 86.5 | – | – | –
CCc1ccc2c(P(C)(C)=O)c(Nc3nc(Nc4cc(CC)c(N5CCC(N6CCN(C(=O)Cc7ccc8c(c7)oc(=O)n8C7CCC(=O)NC7=O)CC6)CC5)cc4OC)ncc3Br)ccc2n1 (stereo not shown) [Example 669, 3-(6-(2-(4-(1-(4-((5-bromo-4-((5-(dimethylphosphoryl)-2-ethylquinolin-6-yl)amino)pyrimidin-2-yl)amino)-2-ethyl-5-methoxyphenyl)piperidin-4-yl)piperazin-1-yl)-2-oxoethyl)-2-oxobenzo[d]oxazol-3(2H)-yl)piperidine-2,6-dione] | – | – | – | 73.26 | 4.06 | 91.1 | 0.59
CCc1cc(Nc2ncc(Br)c(Nc3ccc4nc(C)ccc4c3P(C)(C)=O)n2)c(OC)cc1N1CCC(N2CCN(C(=O)Cc3cc(F)c([C@H]4CCC(=O)NC4=O)c(F)c3)CC2)CC1 [Example 670, (R)-3-(4-(2-(4-(1-(4-((5-bromo-4-((5-(dimethylphosphoryl)-2-methylquinolin-6-yl)amino)pyrimidin-2-yl)amino)-2-ethyl-5-methoxyphenyl)piperidin-4-yl)piperazin-1-yl)-2-oxoethyl)-2,6-difluorophenyl)piperidine-2,6-dione] | 3.37 | 88.3 | 0.634 | 83.95 | – | – | –
CCc1ccc2c(P(C)(C)=O)c(Nc3nc(Nc4cc(CC)c(N5CCC(N6CCN(C(=O)Cc7cccc8c7n(C)c(=O)n8C7CCC(=O)NC7=O)CC6)CC5)cc4OC)ncc3Br)cc(F)c2n1 (stereo not shown) [Example 671, 3-(4-(2-(4-(1-(4-((5-bromo-4-((5-(dimethylphosphoryl)-2-ethyl-8-fluoroquinolin-6-yl)amino)pyrimidin-2-yl)amino)-2-ethyl-5-methoxyphenyl)piperidin-4-yl)piperazin-1-yl)-2-oxoethyl)-3-methyl-2-oxo-2,3-dihydro-1H-benzo[d]imidazol-1-yl)piperidine-2,6-dione] | 4.85 | 92.7 | 0.219 | 75.9 | – | – | –
CCOc1cc(N2CCC(N3CCN(CCc4cc(F)c([C@H]5CCC(=O)NC5=O)c(F)c4)CC3)CC2)c(CC)cc1Nc1ncc(Br)c(Nc2cc(F)c3ncc(C)cc3c2P(C)(C)=O)n1 [Example 672, (R)-3-(4-(2-(4-(1-(4-((5-bromo-4-((5-(dimethylphosphoryl)-8-fluoro-3-methylquinolin-6-yl)amino)pyrimidin-2-yl)amino)-5-ethoxy-2-ethylphenyl)piperidin-4-yl)piperazin-1-yl)ethyl)-2,6-difluorophenyl)piperidine-2,6-dione] | 6.6 | 86.9 | 0.723 | 87.05 | – | – | –
CCc1cc(Nc2ncc(Br)c(Nc3ccc4c(=O)n(CC)ncc4c3P(C)(C)=O)n2)c(OC)cc1N1CCC(N2CCN(C(=O)[C@@H]3CCN(c4cc(F)c([C@H]5CCC(=O)NC5=O)c(F)c4)C3)CC2)CC1 [Example 673, (R)-3-(4-((R)-3-(4-(1-(4-((5-bromo-4-((5-(dimethylphosphoryl)-2-ethyl-1-oxo-1,2-dihydrophthalazin-6-yl)amino)pyrimidin-2-yl)amino)-2-ethyl-5-methoxyphenyl)piperidin-4-yl)piperazine-1-carbonyl)pyrrolidin-1-yl)-2,6-difluorophenyl)piperidine-2,6-dione] | 5.79 | 93.3 | 0.677 | 85.2 | – | – | –
CCc1cc(Nc2ncc(Br)c(Nc3ccc4nc(C#N)ccc4c3P(C)(C)=O)n2)c(OC)cc1N1CCC(N2CCN(C(=O)[C@@H]3CCN(c4cc(F)c([C@H]5CCC(=O)NC5=O)c(F)c4)C3)CC2)CC1 [Example 674, 6-((5-bromo-2-((4-(4-(4-((R)-1-(4-((R)-2,6-dioxopiperidin-3-yl)-3,5-difluorophenyl)pyrrolidine-3-carbonyl)piperazin-1-yl)piperidin-1-yl)-5-ethyl-2-methoxyphenyl)amino)pyrimidin-4-yl)amino)-5-(dimethylphosphoryl)quinoline-2-carbonitrile] | 9.62 | 94.6 | 2.19 | 69.95 | – | – | –
CCc1cc(Nc2ncc(Br)c(Nc3ccc4nc(C)ccc4c3P(C)(C)=O)n2)c(OC)cc1N1CCC(N2CCN(C(=O)[C@@H]3CCN(c4cc(F)c([C@H]5CCC(=O)NC5=O)c(F)c4)C3)[C@H](CO)C2)CC1 [Example 675, (R)-3-(4-((R)-3-((S)-4-(1-(4-((5-bromo-4-((5-(dimethylphosphoryl)-2-methylquinolin-6-yl)amino)pyrimidin-2-yl)amino)-2-ethyl-5-methoxyphenyl)piperidin-4-yl)-2-(hydroxymethyl)piperazine-1-carbonyl)pyrrolidin-1-yl)-2,6-difluorophenyl)piperidine-2,6-dione] | 4.3 | 96.5 | 1.01 | 82.47 | – | – | –
CCOc1cc(N2CCC(N3CCN(CCc4ccc5c(c4)oc(=O)n5C4CCC(=O)NC4=O)CC3)CC2)c(CC)cc1Nc1ncc(Br)c(Nc2ccc3nc(C)ccc3c2P(C)(C)=O)n1 (stereo not shown) [Example 676, 3-(6-(2-(4-(1-(4-((5-bromo-4-((5-(dimethylphosphoryl)-2-methylquinolin-6-yl)amino)pyrimidin-2-yl)amino)-5-ethoxy-2-ethylphenyl)piperidin-4-yl)piperazin-1-yl)ethyl)-2-oxobenzo[d]oxazol-3(2H)-yl)piperidine-2,6-diQne] | 3.14 | 96.4 | 0.64 | 88.89 | – | – | –
